According to patent US8088761B2, “Enzyme inhibitors” (Cancer Research Technology Limited, priority 2005, dated 2012):

Experiments:
HCT116 cells = assay: Cell viability assay (MTT) in HCT116 cell line; format: cell-based; settings: Homo sapiens, HCT-116, 72 hrs, IC50 range, read-out: HCT116 cell growth inhibition
Description: Cell Viability Assay: Determination of IC50 of Aurora Inhibitors in HCT116 Cell Line Using MTT Assay. The effects of compounds of the Examples on cellular proliferation were determined using the MTT assay according to manufacturer's instructions (Sigma). Briefly, the human colon tumour cells HCT116, were seeded in triplicate into 96-well plates at 2500 cells/well 24 hours before treatment with a range of concentrations of Aurora inhibitors (0-50 μM). After 72 hrs, 15 μl/well of 0.5% 3-(4,5-dimethylthiazol-2-yl)-2,5-diphenyltetrazolium bromide (MTT) was added to the cells for 4 hrs at 37° C., the dye-stained viable cells were extracted by adding 150 μl/well of dimethyl sulphoxide (DMSO). […] The IC50 was calculated using the Prism software.

Aurora-A = molecular target: T1, Aurora-A (Homo sapiens, UniProt O14965); assay: Flashplate Aurora A enzyme inhibition assay; format: biochemical; settings: Flashplate assay; IC50 range; read-out: Aurora-A inhibition
T1 sequence (O14965 1-403): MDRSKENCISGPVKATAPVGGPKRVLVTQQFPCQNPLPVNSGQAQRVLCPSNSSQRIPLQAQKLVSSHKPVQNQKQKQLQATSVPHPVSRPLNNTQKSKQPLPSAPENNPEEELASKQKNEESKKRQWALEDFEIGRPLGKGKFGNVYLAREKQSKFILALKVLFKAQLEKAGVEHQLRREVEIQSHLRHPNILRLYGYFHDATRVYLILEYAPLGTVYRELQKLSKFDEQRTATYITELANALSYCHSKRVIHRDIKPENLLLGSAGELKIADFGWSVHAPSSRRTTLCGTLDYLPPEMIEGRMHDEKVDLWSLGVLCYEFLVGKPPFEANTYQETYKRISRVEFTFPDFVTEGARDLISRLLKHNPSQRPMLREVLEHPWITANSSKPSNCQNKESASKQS
Description: Flashplate® Assay for Identification and Evaluation of Aurora-A Inhibitors
On this assay 384-well Basic Flashplate® (SMP400E, PerkinElmer) as solid assay platform was used. The plates were coated overnight at 4° C. with […] at 100 μg/ml in PBS buffer and used after being washed twice with PBS. 5 μl of compound in 2% DMSO was added to each well followed by 15 μl master mix of kinase buffer (50 mM Tris pH 7.5, 10 mM NaCl, 2.5 mM MgCl2, 1 mM […], 20 μM ATP, and 0.025 μCi/μl ^33P-ATP). Finally, 250 ng per well of Aurora-A enzyme was added. The plate was shaken for approximately 2 min on a flat-bed plate shaker (Wellmix, Denley, UK) and incubated for 2 hours at room temperature. The reaction was stopped by washing the plate twice on a 16-pin wash (ELX50 BioTek Instruments Ltd., Northstar, Bedford, UK) with 10 mM sodium pyrophosphate. The plate was then read on a TopCount-NX™ (PerkinElmer Life Sciences UK Ltd., Hounslow, UK).

| SMILES | IC50 (HCT116 cells) [nM] | IC50 (Aurora-A) [nM] |
| --- | --- | --- |
| CC(c1cccnc1)N1CCN(c2c(Br)cnc3[nH]c(-c4ccc(N(C)C)cc4)nc23)CC1 (centres unmarked) [Example 52, 4-(6-Bromo-7-(4-(1-(pyridin-3-yl)ethyl)piperazin-1-yl)-3H-imidazo[4,5-b]pyridin-2-yl)-N,N-dimethylaniline] | 500 to 2000 | < 500 |
| COc1ccc(CN2CCN(c3c(Br)cnc4[nH]c(-c5ccc(N6CCOCC6)cc5)nc34)CC2)cn1 [Example 118, 4-(4-(6-Bromo-7-(4-((6-methoxypyridin-3-yl)methyl)piperazin-1-yl)-3H-imidazo[4,5-b]pyridin-2-yl)phenyl)morpholine] | < 500 | < 500 |
| CN(C)c1ccc(-c2nc3c(N4CCN(CC(=O)Nc5nccs5)CC4)c(C#N)cnc3[nH]2)cc1 [Example 62, 2-(4-(6-Cyano-2-(4-(dimethylamino)phenyl)-3H-imidazo[4,5-b]pyridin-7-yl)piperazin-1-yl)-N-(thiazol-2-yl)acetamide] | 500 to 2000 | < 500 |
| CN1CCN(Cc2ccc(-c3nc4c(N5CCN(Cc6cccnc6)CC5)c(Br)cnc4[nH]3)cc2)CC1 [Example 96, 6-Bromo-2-(4-((4-methylpiperazin-1-yl)methyl)phenyl)-7-(4-(pyridin-3-ylmethyl)piperazin-1-yl)-3H-imidazo[4,5-b]pyridine] | 500 to 2000 | < 500 |
| O=C(CN1CCN(c2c(Br)cnc3[nH]cnc23)CC1)Nc1nccs1 [Example 10, 2-[4-(6-Bromo-3H-imidazo[4,5-b]pyridin-7-yl)-piperazin-1-yl]-N-thiazol-2-yl-acetamide] | 2000 to 50000 | 500 to 2000 |
| COc1ccc(-c2nc3c(N4CCN(Cc5cccnc5)CC4)c(Br)cnc3[nH]2)cc1 [Example 28, 6-Bromo-2-(4-methoxyphenyl)-7-(4-(pyridin-3-ylmethyl)piperazin-1-yl)-3H-imidazo[4,5-b]pyridine] | 500 to 2000 | < 500 |
| CC(C)(C)OC(=O)NCCc1nc2c(N3CCN(Cc4cccnc4)CC3)c(Br)cnc2[nH]1 [Example 97, tert-Butyl 2-(6-bromo-7-(4-(pyridin-3-ylmethyl)piperazin-1-yl)-3H-imidazo[4,5-b]pyridin-2-yl)ethylcarbamate] | 2000 to 50000 | < 500 |
| Cn1cc(-c2nc3c(N4CCN(Cc5cccnc5)CC4)c(Br)cnc3[nH]2)cn1 [Example 56, 6-Bromo-2-(1-methyl-1H-pyrazol-4-yl)-7-(4-(pyridin-3-ylmethyl)piperazin-1-yl)-3H-imidazo[4,5-b]pyridine] | 2000 to 50000 | < 500 |
| CC(c1ccccn1)N1CCN(c2c(Br)cnc3[nH]c(-c4ccc(N(C)C)cc4)nc23)CC1 (centres unmarked) [Example 50, 4-(6-Bromo-7-(4-(1-(pyridin-2-yl)ethyl)piperazin-1-yl)-3H-imidazo[4,5-b]pyridin-2-yl)-N,N-dimethylaniline] | 500 to 2000 | < 500 |
| O=C(CN1CCN(c2c(Cl)cnc3[nH]c(-c4ccccc4)nc23)CC1)Nc1nccs1 [Example 4, 2-[4-(6-Chloro-2-phenyl-3H-imidazo[4,5-b]pyridin-7-yl)-piperazin-1-yl]-N-thiazol-2-yl-acetamide] | 500 to 2000 | < 500 |
| CN(C)c1ccc(-c2nc3c(N4CCN(Cc5ccncc5)CC4)c(Br)cnc3[nH]2)cc1 [Example 31, 4-(6-Bromo-7-(4-(pyridin-4-ylmethyl)piperazin-1-yl)-3H-imidazo[4,5-b]pyridin-2-yl)-N,N-dimethylaniline] | 500 to 2000 | < 500 |
| Cn1cncc1CN1CCN(c2c(Br)cnc3[nH]c(-c4ccc(CN5CCOCC5)cc4)nc23)CC1 [Example 169, 4-(4-(6-Bromo-7-(4-((1-methyl-1H-imidazol-5-yl)methyl)piperazin-1-yl)-3H-imidazo[4,5-b]pyridin-2-yl)benzyl)morpholine] | 500 to 2000 | < 500 |
| CN(C)c1ccc(-c2nc3c(N4CCN(CC(=O)Nc5cccc(Cl)c5)CC4)c(Cl)cnc3[nH]2)cc1 [Example 24, 2-(4-(6-Chloro-2-(4-(dimethylamino)phenyl)-3H-imidazo[4,5-b]pyridin-7-yl)piperazin-1-yl)-N-(3-chlorophenyl)acetamide] | 2000 to 50000 | < 500 |
| Cc1nc(CN2CCN(c3c(Br)cnc4[nH]c(-c5ccc(CN6CCOCC6)cc5)nc34)CC2)cs1 [Example 156, 4-(4-(6-Bromo-7-(4-((2-methylthiazol-4-yl)methyl)piperazin-1-yl)-3H-imidazo[4,5-b]pyridin-2-yl)benzyl)morpholine] | < 500 | < 500 |
| COc1ccc(-c2nc3c(N4CCN(CC(=O)Nc5nccs5)CC4)c(Cl)cnc3[nH]2)cc1 [Example 19, 2-(4-(6-Chloro-2-(4-methoxyphenyl)-3H-imidazo[4,5-b]pyridin-7-yl)piperazin-1-yl)-N-(thiazol-2-yl)acetamide] | 500 to 2000 | < 500 |
| Cn1cncc1CN1CCN(c2c(Br)cnc3[nH]c(-c4ccc(CN5CCNCC5)cc4)nc23)CC1 [Example 181, 6-bromo-7-(4-((1-methyl-1H-imidazol-5-yl)methyl)piperazin-1-yl)-2-(4-(piperazin-1-ylmethyl)phenyl)-3H-imidazo[4,5-b]pyridine] | 2000 to 50000 | < 500 |
| Clc1ccc(CN2CCN(c3c(Br)cnc4[nH]c(-c5ccc(CN6CCOCC6)cc5)nc34)CC2)cc1 [Example 69, 6-Bromo-7-[4-(4-chloro-benzyl)-piperazin-1-yl]-2-(4-morpholin-4-ylmethyl-phenyl)-3H-imidazo[4,5-b]pyridine] | 500 to 2000 | < 500 |
| COc1ccc(-c2nc3c(N4CCN(Cc5cc(C)on5)CC4)c(Br)cnc3[nH]2)cc1 [Example 74, 6-Bromo-2-(4-methoxy-phenyl)-7-[4-(5-methyl-isoxazol-3-ylmethyl)-piperazin-1-yl]-3H-imidazo[4,5-b]pyridine] | < 500 | < 500 |
| CN(C)c1ccc(-c2nc3c(N4CCN(Cc5cccnc5)CC4)c(Br)cnc3[nH]2)cc1 [Example 27, 4-(6-Bromo-7-(4-(pyridin-3-ylmethyl)piperazin-1-yl)-3H-imidazo[4,5-b]pyridin-2-yl)-N,N-dimethylaniline] | 500 to 2000 | < 500 |
| Cc1nc(CN2CCN(c3c(Br)cnc4[nH]c(-c5ccc(N6CCNCC6)cc5)nc34)CC2)cs1 [Example 163, 4-((4-(6-Bromo-2-(4-(piperazin-1-yl)phenyl)-3H-imidazo[4,5-b]pyridin-7-yl)piperazin-1-yl)methyl)-2-methylthiazole] | < 500 | < 500 |
| NCc1ccc(-c2nc3c(N4CCC(Oc5ccccc5)CC4)c(Br)cnc3[nH]2)cc1 [Example 135, (4-(6-Bromo-7-(4-phenoxypiperidin-1-yl)-3H-imidazo[4,5-b]pyridin-2-yl)phenyl)methanamine] | 500 to 2000 | < 500 |
| COc1ccc(-c2nc3c(N4CCN(Cc5c(C)noc5C)CC4)c(Br)cnc3[nH]2)cc1 [Example 127, 4-((4-(6-Bromo-2-(4-methoxyphenyl)-3H-imidazo[4,5-b]pyridin-7-yl)piperazin-1-yl)methyl)-3,5-dimethylisoxazole] | 500 to 2000 | < 500 |
| CN(C)Cc1cccc(-c2nc3c(N4CCN(CC(=O)Nc5nccs5)CC4)c(Br)cnc3[nH]2)c1 [Example 13, 2-{4-[6-Bromo-2-(3-dimethylaminomethyl-phenyl)-3H-imidazo[4,5-b]pyridin-7-yl]-piperazin-1-yl}-N-thiazol-2-yl-acetamide] | 500 to 2000 | < 500 |
| COc1ccc(-c2nc3c(N4CCN(CC(C)C)CC4)c(Cl)cnc3[nH]2)cc1 [Example 36, 6-Chloro-7-(4-isobutylpiperazin-1-yl)-2-(4-methoxyphenyl)-3H-imidazo[4,5-b]pyridine] | < 500 | < 500 |
| O=C(CN1CCN(c2c(Cl)cnc3[nH]c(-c4ccc(OCCO)cc4)nc23)CC1)Nc1nccs1 [Example 183, 2-(4-(6-Chloro-2-(4-(2-hydroxyethoxy)phenyl)-3H-imidazo[4,5-b]pyridin-7-yl)piperazin-1-yl)-N-(thiazol-2-yl)acetamide] | 500 to 2000 | < 500 |
